Consider two compounds from ChEMBL document CHEMBL3745656, “Discovery of Inhibitors That Overcome the G1202R Anaplastic Lymphoma Kinase Resistance Mutation” (J Med Chem, 2015).

The nature of data set [1]: in vivo. Conditions: mouse, brain, po, 10 mg/kg.
Description: Drug level in mouse brain at 10 mg/kg, po after 8 hrs
Data set [2] in a line: in vivo. Conditions: mouse, brain, iv, 2 mg/kg.
Description: Drug level in mouse brain at 2 mg/kg, iv after 8 hrs
A short description of data set [3]: Plasma concentration in mouse at 10 mg/kg, po after 8 hrs. In kind it is ADME, organism-based.
Data set [4] in a line: Plasma concentration in mouse at 2 mg/kg, iv after 2 hrs. In kind it is ADME, organism-based.
Data set [5] is described as follows: Plasma concentration in mouse at 2 mg/kg, iv after 8 hrs. In kind it is ADME, organism-based.
Data set [6] in a line: Plasma concentration in mouse at 10 mg/kg, po after 2 hrs. It counts as ADME, organism-based.

`CCc1cc2c(cc1-c1cnn(CC(=O)N(C)C)c1)C(C)(C)c1[nH]c3cc(C#N)ccc3c1C2=O`: the concentration at 8 h in the data set “in vivo [1]” and in “in vivo [2]” was 4 nM each time.

`CCc1cc2c(cc1-c1cnn(CCCN(C)C)c1)C(C)(C)c1[nH]c3cc(C#N)ccc3c1C2=O`: the concentration at 8 h in data set [3] stood at 170 nM; in the data set “in vivo [2]”, 80 nM; in data set [5] it was 50 nM. In addition, the concentration at 2 h in data set [4] and in data set [6] was 210 nM throughout.
